Laboratory results from patent publication US20230310459A1, “NEUROACTIVE STEROIDS AND THEIR METHODS OF USE” (Sage Therapeutics, Inc., priority 2017, published 2023).
“Also recorded” adds a separate entry of the source.

Key:
Type in all cases: in vivo, human
[1] = system: Adult patients with moderate to severe Major Depressive Disorder (MDD); assay: Phase 2 double-blind placebo-controlled trial (Part B): safety and tolerability
Protocol: (§1) In the randomized, double-blind, parallel-group, placebo-controlled trial, eligible patients (with a minimum total score of 22 on the Hamilton Rating Scale for Depression) were stratified based on use of antidepressant treatment (current/stable or not treated/withdrawn ≥30 days) and randomized in a 1:1 ratio to receive Compound 1 Capsules (30 mg) or matching placebo. All doses of study drug were administered at night with food. The study consisted of a 14-day treatment period, and a 4-week follow-up period. The mean HAM-D total scores at baseline were 25.2 for the Compound 1 group and 25.7 for the placebo group (overall range 22-33), representing patients with moderate to severe MDD. Approximately 90 percent of patients in each group completed the study.

[2] = Phase 2 open-label study (Part A): plasma pharmacokinetics; conditions: 30 mg oral solution once daily with food, N=13
Protocol: (§2) Compound 1 was provided as a 6 mg/mL stock aqueous solution, which was further diluted with sterile water to achieve the selected dose that was administered as an oral solution. Participants received an open label 30 mg Compound 1 oral dose administered at 8:00 PM (+/−15 minutes) with food on Days 1 through 14. Subjects who experienced drug-related moderate or severe adverse events (as judged by the study investigators) while receiving the 30 mg dose of study drug were to have their dose reduced to 20 mg for the remaining treatment period. Any subjects not tolerating a 20 mg dose were to be terminated from the study. Vital signs were collected daily. Other study procedures and plasma collection for PK parameters were conducted at various times during the 14-day open label treatment period (procedure details in the Supplemental Appendix). Treatment follow-up was conducted on an outpatient basis and included a follow-up visit at 1 week (21+/−1 day) and at 2 weeks (28+/−1 day) after the last dose of the study drug.
(§3) The primary endpoint of safety and tolerability of Compound 1 was assessed by the frequency and severity of adverse events, vital signs, changes in clinical laboratory measures, physical exams, electrocardiograms (ECGs), the Stanford Sleepiness Scale (SSS) score, and suicide ideation using the Columbia-Suicide Severity Rating Scale (C-SSRS, Supplemental Table 1). Secondary efficacy endpoints included: change from baseline in HAM-D total score, HAM-D response, defined as having a 50% or greater reduction from baseline in HAM-D total score, HAM-D remission, defined as having a HAM-D total score of ≤7, HAM-A change from baseline, and MADRS score change from baseline. The PK profile of Compound 1 was also determined from plasma samples.

[3] = system: Adult patients with moderate to severe Major Depressive Disorder (MDD); assay: Phase 2 double-blind placebo-controlled trial (Part B): HAM-D efficacy
Protocol: as §1

[4] = system: Subjects with Major Depressive Disorder; assay: Phase 2 open-label study (Part A): HAM-D, MADRS, HAM-A efficacy
Protocol: In this multicenter, open-label, Phase 2 clinical trial, subjects were administered 30 mg Compound 1 on Days 1-14 and assessed through Day 28. Reductions in depressive and anxiety symptoms were assessed by the Hamilton Rating Scales for Depression and Anxiety (HAM-D and HAM-A), and the Montgomery-Asberg Depression Rating Scale (MADRS). Safety and tolerability were assessed via standard safety parameters. Pharmacokinetic parameters were also evaluated.
Written informed consent was provided at screening and was required for enrollment. The diagnosis of MDD was made using the Structured Clinical Interview for Diagnostic and Statistical Manual of Mental Disorders, Fifth Edition (DSM-5) Axis I Disorders (SCID-I), as performed by a qualified healthcare professional. Subjects were also screened with the 17-item Hamilton Rating Scale for Depression (HAM-D) to ensure symptom severity of at least 22. Hamilton Anxiety Rating Scale (HAM-A), Montgomery-Asberg Depression Rating Scale (MADRS), and Clinical Global Impression-Severity (CGI-S) scale were also administered. Using the 17-item HAM-D scale, a patient with a summed score of 17-23 was considered to have moderate depression; a summed score of ≥24 was considered severe depression. Patient histories and concomitant medication information were collected. The study population included subjects of both sexes, ages 18-65 years old, inclusive (inclusion/exclusion criteria below). Subjects remained as inpatients during the first 7 days of the study period and per Investigator's judgement thereafter. Subjects received the standard of care for adult inpatients diagnosed with MDD and were allowed to remain on a stable dose of psychotropic medications that were initiated at least 14 days prior to screening.
as §2, §3
Continuous parameters were summarized as n, mean, and standard deviation, with categorical variables summarized as frequency counts and percentages. For HAM-D, HAM-A, and MADRS total scores, p-values for change from baseline values were calculated based on mixed effects model for repeated measures with visit as fixed effect, adjusting for baseline total score. […]

[5] = Day 15, 30 mg once daily Days 1-14, N=13

For `C[C@@]1(O)CC[C@H]2[C@H](CC[C@@H]3[C@@H]2CC[C@]2(C)[C@@H](C(=O)Cn4cc(C#N)cn4)CC[C@@H]32)C1` [Compound 1, 1-(2-((3R,5R,8R,9R,10S,13S,14S,17S)-3-hydroxy-3,13-dimethylhexadecahydro-1H-cyclopenta[a]phenanthren-17-yl)-2-oxoethyl)-1H-pyrazole-4-carbonitrile], the “deaths, serious or severe adverse events” value ([1]; Capsules 30 mg for 14 days) was “no deaths, serious or severe adverse events”, the “most common AEs” value ([1]; Capsules 30 mg for 14 days) was “headache, dizziness, nausea, and somnolence” and the tolerability ([1]; Capsules 30 mg for 14 days) was “generally well-tolerated; also recorded: generally well tolerated”. The “overall incidence of patients who experienced adverse events” value ([1]; Capsules 30 mg for 14 days, placebo 46%) was 53%, the “rate of discontinuation from dosing of study drug due to adverse events” value ([1]; two patients, none with placebo) was 4.4% and the “Cavg ss, geometric mean” value ([2]; Day 7, steady state) was 41.4 ng/mL. For the same compound, the Cmax ([2]; human, plasma, Day 7, steady state, MDD subjects, read-out: Cmax, geometric mean) was 101 ng/mL, the AUC(0-t) ([2]; human, plasma, Day 7, steady state, read-out: AUC0-t, geometric mean) was 992 ng·h/mL and the AUC(0-inf) ([2]; human, plasma, Day 7, steady state, read-out: AUCinf, geometric mean) was 1150 ng·h/mL. For the same compound, the half-life ([2]; human, plasma, Day 7, read-out: T1/2, median (converted)) was 10.3 h, the Tmax ([2]; human, plasma, Day 7, read-out: Tmax, median) was 1.1 h and the “onset of improvement in HAM-D total score compared to placebo” value ([3]; Capsules 30 mg at night with food) was “significant by the morning following the first dose (Day 2)”. The “HAM-D total score, mean reduction from baseline” value ([3]; Day 15, Capsules 30 mg at night with food for 14 days, baseline 25.2, placebo 10.7) was 17.6 points, the “HAM-D total score, least squared mean difference from placebo” value ([3]; Day 15, p<0.0001) was −7.0 and the “remission rate (HAM-D total score not more than 7)” value ([3]; Day 15, placebo 23 percent, p=0.0005) was 64%. For the same compound, the “HAM-D total score, mean reduction from baseline” value ([3]; Week 4, placebo 11.9, p=0.0243) was 15.6, the remission rate ([3]; Week 4, placebo 28 percent, p=0.0221) was 52% and the “HAM-D total score, mean reduction from baseline” value ([3]; Week 6, placebo 13.0, not statistically improved) was 15.0. For the same compound, the remission rate ([3]; Week 6, placebo 33 percent, not significant) was 45%, the “HAM-D remission rate (HAM-D total score ≤7)” value ([4]; Day 15, end of the treatment period, N=13) was 62% and the “HAM-A total score, mean decrease from baseline” value [4, 5] was 15.5 points. For the same compound, the “HAM-D total score, mean decrease from baseline” value [4, 5] was 19.9 points, the “MADRS total score, mean decrease from baseline” value [4, 5] was 26.4 points and the “HAM-A mean total score” value ([4]; Day 15, 30 mg once daily Days 1-14, baseline 23.2, N=13) was 7.7. For the same compound, the “MADRS mean total score” value ([4]; Day 15, 30 mg once daily Days 1-14, baseline 36.9, N=13) was 10.5, the “HAM-D mean total score” value ([4]; Day 15, 30 mg oral solution once daily Days 1-14 with food, baseline 27.2, N=13) was 7.3 and the HAM-D response rate ([4]; Day 15, absence of antidepressants at enrollment (n=8)) was 75.0%. For the same compound, the “HAM-D response rate (total score reduced by at least 50%)” value ([4]; Day 15, all 13 subjects) was 85%, the HAM-D response rate ([4]; Day 15, presence of antidepressants at enrollment (n=5)) was 100% and the HAM-D response rate ([4]; Day 28, absence of antidepressants at enrollment (n=8)) was 75%. The HAM-D response rate ([4]; Day 28, presence of antidepressants at enrollment (n=5)) was 80%, the “HAM-D remission rate (HAM-D total score ≤7)” value ([4]; by Day 6, N=13) was 39% and the “time at which significant reductions in depressive symptoms (HAM-D) were seen” value ([4]; p<0.05, 30 mg once daily) was “as early as Day 2”.
